Target: β-secretase 1 (BACE1) (Homo sapiens, UniProt P56817)
Experiment: HitHunter BACE1 enzyme fragment complementation chemiluminescence assay, […] h incubation, dose response
Assay type: biochemical

β-secretase 1 (BACE1), sequence (P56817 46-457): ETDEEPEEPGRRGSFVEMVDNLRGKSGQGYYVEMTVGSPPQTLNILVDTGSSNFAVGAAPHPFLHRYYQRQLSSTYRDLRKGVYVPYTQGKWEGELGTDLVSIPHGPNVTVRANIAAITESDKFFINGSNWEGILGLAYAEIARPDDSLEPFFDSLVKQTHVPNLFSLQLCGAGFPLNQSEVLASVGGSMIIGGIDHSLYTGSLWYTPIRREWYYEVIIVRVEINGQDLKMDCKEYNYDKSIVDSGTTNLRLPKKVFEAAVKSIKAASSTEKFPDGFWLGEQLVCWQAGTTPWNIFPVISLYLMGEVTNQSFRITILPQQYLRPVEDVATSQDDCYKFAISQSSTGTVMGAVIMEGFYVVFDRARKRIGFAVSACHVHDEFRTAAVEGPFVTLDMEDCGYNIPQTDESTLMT

| IC50 | Compound |
| --- | --- |
| 65 µM | C=C1CCC[C@H]2[C@](C)(CC3=C(O)C(=O)C=C(OC)C3=O)[C@@H](C)CC[C@]12C [compound 1, ilimaquinone] |
| 78 µM | C=C1CCC[C@H]2[C@](C)(CC3=C(O)C(=O)C=C(N)C3=O)[C@@H](C)CC[C@]12C [compound 3, smenospongine] |

From paper PMC6669564, “Cytotoxic Sesquiterpenoid Quinones and Quinols, and an 11-Membered Heterocycle, Kauamide, from the Hawaiian Marine Sponge Dactylospongia elegans” (Marine Drugs, 2019)
